Experimental data from US7994402B2, “Method of increasing plant organ and seed size in a plant” (Monsanto Technology LLC, priority 2002, dated 2011).

Biological target: T1, A. thaliana protein molecule SEQ ID NO: 4 (His-tagged, from pMON63134) (Arabidopsis thaliana, UniProt Q9ZW18)
T1 construct: His-tag (N); made in house; host or cells: E. coli (pET-28b vector, plasmid pMON63134)
Test: Spectrophotometric reductase assay, consumption or production of NADPH at 340 nm
Assay type: biochemical
Description: Appropriate clones (as shown in FIGS. 4-7) expressing all four versions of above-mentioned proteins in E. coli were identified by appropriate antibiotic selection as described by the manufacturer (Novagen 441 Charmany Drive Madison, Wis., 53719, USA). Expressed protein bands of the predicted sizes were identified by analytical SDS poly acrylamide gel electrophoresis (Laemmli, U.K., Nature, 227, 680, 1970) to confirm the expression of desired protein. […] Protein obtained from the plasmid pMON63134 (FIG. 6) was chosen for assay work described below. Protein extracts were prepared by freeze thawing and sonication as described Cull and McHenry (Cull M and McHenry C. S. Methods in Enzymology 182, 147-153, 1990). Pellets were resuspended in an appropriate volume of either 50 mM Tris-HCl pH 7.4 250 mM NaCl and 500 μM EDTA with 0.05% CHAPS and 1 mM ABESF or 50 mM KH2PO4 pH-7.2 250 mM NaCl and 250 μM EDTA with 0.05% CHAPS and 1 mM ABESF, buffer. Crude extracts containing His-tagged protein were applied to equilibrated His-Trap (Pharmacia Piscataway, N.J.) columns and purified by standard procedures as described by the manufacturer of the columns. Steps included a 10 mM imidazole elution/wash and elution in 250 mM imidazole. As a result the Arabidopsis tagged protein was partially purified (approximately 85-90% by SDS-PAGE stained with Coomasie Blue). Purified samples were gel filtered into 50 mM KH2PO4 pH-7.2 250 mM NaCl and 250 μM EDTA, 10% glycerol and stored at −80° C. until use. Protein concentrations were 1.5 to 1.7 mg/mL, based on the method of Bradford (Bradford M, Anal Biochem, 72, 248, 1976 and Bio-Rad Laboratories Procedure bulletin 1123) with BSA standard (Bradford reagent and BSA was from Bio-Rad Laboratories Headquarters 1000 Alfred Nobel Drive Hercules, Calif. 94547). The assays described below used 10 or 15 uL of this solution (15 to 22 μg per reaction).
Spectrophotometric assays were used for determination of enzyme activities of purified proteins. Assays were based on earlier described methods (Portsteffen et al. Phyochemistry, 37, 391, 1994). […] Assays were performed in a Varian Cary 50 Bio spectrophotometer (Varian Instruments Inc. AA, ICP, UV, to Fluorescence Products 679 Springvale RoadMulgrave, Victoria 3170 Australia). All assays were run at 30° C. for 10 to 30 minutes in 1 mL volumes using 100 mM KH2PO4 pH 6.5, 250 μM EDTA or 50 mM KH2PO4 pH-7.2, 250 mM NaCl, and 250 μM EDTA as reaction buffer. If metals were added they were supplemented to reactions in cuvettes from 100 mM stocks of either ZnCl2 and or MgCl2. Substrates included those found in table 8. […] Controls contained no substrate to determine the background rate of consumption and degradation of NADPH. NADPH solutions were freshly made and checked by UV-vis for degradation. Enzyme solutions were supplemented with 1 mM MgCl2 and 1 mM Zn Cl2 which were at 1.5 to 1.7 mg/mL concentrations. The assays used 10 or 15 μl of this solution (ca. 15 to 22 μg per reaction). Stock solutions of the substrates (20 to 500 mM) were made up in a reaction buffer or as noted. Steroids solutions were made in 100% EtOH. From these stock solutions additions to the assays were made directly. Precipitation of steroids was observed. Thus, the soluble concentration of steroids in reaction mixture is not accurately known in each case. However, good estimate of substrate (sterol) concentration would be 100 to 200 μM for a saturated solution under these conditions. […] In addition to cell extract control, a substrate control was also employed because solutions of some substrates tested can have a lower pH at described assay conditions which may affect rates of NADPH degradation and enzyme activity under assay conditions.

T1 sequence (Q9ZW18 1-268): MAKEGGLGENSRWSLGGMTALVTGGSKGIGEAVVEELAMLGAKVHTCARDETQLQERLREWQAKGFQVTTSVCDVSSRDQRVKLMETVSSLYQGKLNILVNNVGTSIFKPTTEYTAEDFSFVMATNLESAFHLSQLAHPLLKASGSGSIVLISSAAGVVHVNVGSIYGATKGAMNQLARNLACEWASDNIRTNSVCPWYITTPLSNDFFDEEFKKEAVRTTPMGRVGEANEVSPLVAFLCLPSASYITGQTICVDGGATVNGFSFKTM

acetone
Activity (substrate) (65 mM): Yes | Activity (substrate) (at lower concentrations than 65 mM): Much lower

O=C1OC(CO)[C@@H](O)[C@H](O)C1O (stereo partly drawn) [Glucono 1,5 lactone]
Activity (substrate) (25 mM): No 25 mM

OCC1O[C@H](O)C(O)[C@@H](O)[C@@H]1O (stereo partly drawn) [D-Glucose]
Activity (substrate) (25 mM): No 25 mM

O=C1OC(CO)[C@H](O)C(O)C1O (stereo partly drawn) [δ-gluconolactone]
Activity (substrate) (25 mM): No 25 mM

CN1C2CCC1CC(=O)C2 [Tropinone]
Activity (substrate) (1 and 10 mM): No retested with new enzyme 1 and 10 mM

C[C@]12CCC(=O)CC1CCC1C2CC[C@]2(C)C(=O)CCC12 (stereo in doubt) [5α-androstane-3,17-dione]
Activity (substrate) (100 μM): YES 100 μM

isopropanol
Activity (substrate) (68 mM, substrate for the reverse reaction): Yes 68 mM | substrate quality compared with acetone (at same concentrations, reverse reaction): At high concentrations it is a substrate for the reverse reaction but at same concentrations is a poorer substrate than acetone indicating potential preference for the reductase activity under these conditions.

C[C@]12CCC(=O)C=C1CCC1C2CC[C@]2(C)C(=O)CCC12 (stereo partly drawn) [4-androstene-3,17-dione]
Activity (substrate) (100 μM): YES 100 μM

OCC(O)C(O)C(O)CO (stereo not drawn) [Arabinitol]
Activity (substrate) (25 mM): No 25 mM

O=C(O)C(O)C(O)C(O)C(O)CO (stereo not drawn) [Potassium d-gluconate]
Activity (substrate) (25 mM): No 25 mM

OC[C@H]1O[C@@](CO)(O[C@H]2O[C@H](CO)[C@@H](O)[C@H](O)[C@H]2O)[C@@H](O)[C@@H]1O [Sucrose]
Activity (substrate) (25 mM): No 25 mM

C=C1C[C@]23C[C@@]1(O)CC[C@H]2[C@@]12C=C[C@H](O)[C@@](C)(C(=O)O1)[C@H]2[C@@H]3C(=O)O [Gibberellic Acid (GA3)]
Activity (substrate) (1 and 10 mM): No 1 and 10 mM

CN1C2CCC1CC(O)C2 (stereo not drawn) [Tropine]
Activity (substrate) (1 and 10 mM): No retested with new enzyme 1 and 10 mM
